Test results published in patent US8633206B2, “Pyrrolo[2,3-D]pyrimidine compounds” (Pfizer Inc., priority 2009, dated 2014).

Tests used:
Assay type in all cases: biochemical
JAK3 = JAK3 (Homo sapiens (Human), UniProt P52333); assay: JAK enzymatic assay (peptide mobility shift), JAK3; conditions: recombinant JAK3 1 nM, JAKtide peptide, 90 minutes
Method: (§1) Recombinant JAK1 (Catalog Number PV4775), JAK2 (Catalog Number PV4210) and JAK3 (Catalog Number PV3855) were purchased from (Invitrogen Corporation, Madison, Wis.). […] Adenosine 5′-triphosphate (ATP) was obtained from (Sigma Chemical Company, St. Louis, Mo.). […] Coating Reagent 3 was purchased from (Caliper Life Sciences, Hopkinton, Mass.).
(§2) Compounds were diluted serially in 100% dimethyl sulfoxide and tested in an 11 point dose response in duplicate or quadruplicate (200 nl of compound/DMSO was added per 10 L reaction). […] The assay was run for 240 minutes for JAK1, 150 minutes for JAK2, 90 minutes for JAK3 and 70 minutes for Tyk2. […] The plates were placed on a LabChip 3000 (LC3000) instrument from (Caliper Life Sciences) to measure the formation of phosphorylated peptide. Data was analyzed using Hits Well Analyzer Software from (Caliper Life Sciences) to obtain the amount of product formed.
(§3) Data was then imported into an internal application where each data point is expressed as % inhibition based on uninhibited and no enzyme controls. Dose-response data is then fit using a 4 parameter logistic equation (Equation 1) to determine an IC50.

JAK1 = JAK1 (Homo sapiens (Human), UniProt P23458); assay: JAK enzymatic assay (peptide mobility shift), JAK1; conditions: recombinant JAK1 20 nM, IRS-1 peptide, 240 minutes
Method: as §1, §2, §3

JAK2 = JAK2 (Homo sapiens (Human), UniProt O60674); assay: JAK enzymatic assay (peptide mobility shift), JAK2; conditions: recombinant JAK2 2 nM, JAKtide peptide, 150 minutes
Text: Recombinant JAK1 (Catalog Number PV4775), JAK2 (Catalog Number PV4210) and JAK3 (Catalog Number PV3855) were purchased from (Invitrogen Corporation, Madison, Wis.). Tyk2 (His-Tyk2 (888-1182, C936S, C1142S)) used in this study was expressed and purified at Pfizer Laboratories. Adenosine 5′-triphosphate (ATP) was obtained from (Sigma Chemical Company, St. Louis, Mo.). […] Coating Reagent 3 was purchased from (Caliper Life Sciences, Hopkinton, Mass.).
A peptide mobility shift assay was used to quantify the phosphorylation of the JAKtide (JAK2 and JAK3) or the IRS-1 peptide (JAK1 and Tyk2). Reactions were carried out in a 384-well plate (Matrical MP-101) in a 10 L total volume. […] Compounds were diluted serially in 100% dimethyl sulfoxide and tested in an 11 point dose response in duplicate or quadruplicate (200 nl of compound/DMSO was added per 10 L reaction). The reactions were initiated by the addition of enzyme to the final concentration of 2 nM JAK2, 1 nM JAK3, 12 nM Tyk2 or 20 nM JAK1. The assay was run for 240 minutes for JAK1, 150 minutes for JAK2, 90 minutes for JAK3 and 70 minutes for Tyk2. The assays were stopped at the specified times with 20 uL of 140 mM HEPES, 22.5 mM EDTA and 0.15% Coating Reagent 3. The plates were placed on a LabChip 3000 (LC3000) instrument from (Caliper Life Sciences) to measure the formation of phosphorylated peptide. Data was analyzed using Hits Well Analyzer Software from (Caliper Life Sciences) to obtain the amount of product formed.
as §3

Chain of JAK1 (P23458 whole entry): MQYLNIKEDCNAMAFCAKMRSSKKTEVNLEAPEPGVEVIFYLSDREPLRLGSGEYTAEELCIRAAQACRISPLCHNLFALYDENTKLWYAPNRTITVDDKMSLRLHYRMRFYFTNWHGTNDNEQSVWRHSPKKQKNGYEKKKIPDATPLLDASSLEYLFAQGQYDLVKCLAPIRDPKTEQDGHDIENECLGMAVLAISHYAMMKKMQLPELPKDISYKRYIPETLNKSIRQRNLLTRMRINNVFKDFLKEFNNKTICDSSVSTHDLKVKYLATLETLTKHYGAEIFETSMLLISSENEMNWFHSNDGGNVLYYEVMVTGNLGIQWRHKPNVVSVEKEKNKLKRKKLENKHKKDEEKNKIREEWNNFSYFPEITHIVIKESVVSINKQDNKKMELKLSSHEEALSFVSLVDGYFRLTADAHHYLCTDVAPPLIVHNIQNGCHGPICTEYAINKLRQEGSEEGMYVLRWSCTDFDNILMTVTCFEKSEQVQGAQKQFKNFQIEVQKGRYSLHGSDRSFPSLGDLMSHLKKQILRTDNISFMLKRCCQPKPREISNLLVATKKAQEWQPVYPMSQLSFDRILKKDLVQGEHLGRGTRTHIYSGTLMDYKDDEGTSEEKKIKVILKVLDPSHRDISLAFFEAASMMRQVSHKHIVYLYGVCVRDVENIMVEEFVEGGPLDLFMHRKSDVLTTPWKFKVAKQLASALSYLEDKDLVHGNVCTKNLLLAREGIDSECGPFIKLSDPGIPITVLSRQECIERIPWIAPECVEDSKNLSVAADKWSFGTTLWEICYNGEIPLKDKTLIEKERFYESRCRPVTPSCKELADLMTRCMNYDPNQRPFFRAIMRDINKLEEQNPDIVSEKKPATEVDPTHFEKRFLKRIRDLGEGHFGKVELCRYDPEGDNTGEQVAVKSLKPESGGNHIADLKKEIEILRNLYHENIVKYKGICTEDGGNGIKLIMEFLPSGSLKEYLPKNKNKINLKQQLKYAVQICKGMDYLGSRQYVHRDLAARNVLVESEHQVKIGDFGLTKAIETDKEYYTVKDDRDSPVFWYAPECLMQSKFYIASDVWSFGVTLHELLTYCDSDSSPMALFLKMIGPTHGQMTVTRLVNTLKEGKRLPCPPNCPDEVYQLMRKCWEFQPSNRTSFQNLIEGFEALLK
Chain of JAK2 (O60674 808-1132): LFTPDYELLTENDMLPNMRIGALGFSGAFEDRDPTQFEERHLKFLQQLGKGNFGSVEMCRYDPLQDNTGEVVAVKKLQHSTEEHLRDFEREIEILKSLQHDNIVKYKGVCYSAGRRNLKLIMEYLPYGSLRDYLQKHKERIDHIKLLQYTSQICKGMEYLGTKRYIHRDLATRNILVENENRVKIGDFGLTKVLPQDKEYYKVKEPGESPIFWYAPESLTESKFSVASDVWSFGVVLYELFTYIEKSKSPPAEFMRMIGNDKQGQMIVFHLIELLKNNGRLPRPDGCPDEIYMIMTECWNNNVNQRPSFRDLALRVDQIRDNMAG
Chain of JAK3 (P52333 781-1124): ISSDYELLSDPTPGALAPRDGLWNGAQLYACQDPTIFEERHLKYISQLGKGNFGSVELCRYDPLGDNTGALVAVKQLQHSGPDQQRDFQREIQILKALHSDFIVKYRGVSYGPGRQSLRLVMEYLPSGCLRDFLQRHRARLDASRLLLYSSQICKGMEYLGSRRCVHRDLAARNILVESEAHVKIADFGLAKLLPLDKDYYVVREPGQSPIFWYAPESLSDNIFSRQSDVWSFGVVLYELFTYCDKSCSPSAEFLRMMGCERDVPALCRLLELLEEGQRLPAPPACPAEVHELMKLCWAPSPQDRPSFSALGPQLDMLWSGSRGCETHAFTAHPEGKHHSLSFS

SMILES	IC50 (JAK3) [nM]	IC50 (JAK1) [nM]	IC50 (JAK2) [nM]
CN(c1ncnc2[nH]ccc12)[C@H]1CC[C@H](CS(=O)(=O)N2CCCC(F)C2)CC1 (stereo partly drawn) [Example 10, N-(trans-4-{[(3-fluoro-piperidin-1-yl)sulfonyl]-methyl}cyclohexyl)-N-methyl-7H-pyrrolo[2,3-d]-pyrimidin-4-amine]	234	5.3	26.2
CN(c1ncnc2[nH]ccc12)[C@H]1CC[C@H](CS(=O)(=O)N2CC[C@@H](O)[C@H](O)C2)CC1 [Example 12, (3R,4R)-1-[({trans-4-[methyl(7H-pyrrolo[2,3-d]pyrimidin-4-yl)amino]-cyclohexyl}methyl)sulfonyl]-piperidine-3,4-diol]	119	4.28	11.8
CN(c1ncnc2[nH]ccc12)[C@H]1CC[C@H](CS(=O)(=O)N2CC[C@@H](O)[C@@H](O)C2)CC1 [Example 13, (3S,4R)-1-[({trans-4-[methyl(7H-pyrrolo[2,3-d]pyrimidin-4-yl)amino]-cyclohexyl}methyl)sulfonyl]-piperidine-3,4-diol]	275	6.99	32
CN(c1ncnc2[nH]ccc12)[C@H]1CC[C@H](CS(=O)(=O)N2CCC[C@H](O)C2)CC1 [Example 14, (3S)-1-[({trans-4-[methyl-(7H-pyrrolo[2,3-d]-pyrimidin-4-yl)amino]-cyclohexyl}methyl)sulfonyl]-piperidin-3-ol]	169	5.41	16.2
CN(c1ncnc2[nH]ccc12)[C@H]1CC[C@H](CS(=O)(=O)N2CCCC(C(=O)O)C2)CC1 (stereo partly drawn) [Example 16, 1-[({trans-4-[methyl(7H-pyrrolo[2,3-d]pyrimidin-4-yl)amino]cyclohexyl}methyl)-sulfonyl]piperidine-3-carboxylic acid]	74.3	2.13	7.71
CC(=O)NCC1CCCN(S(=O)(=O)C[C@H]2CC[C@H](N(C)c3ncnc4[nH]ccc34)CC2)C1 (stereo partly drawn) [Example 20, N-({1-[({trans-4-[methyl-(7H-pyrrolo[2,3-d]-pyrimidin-4-yl)amino]-cyclohexyl}methyl)sulfonyl]-piperidin-3-yl}methyl)-acetamide]	190	1.66	15.2
CN(c1ncnc2[nH]ccc12)[C@H]1CC[C@H](CS(=O)(=O)N2CCCC(Cc3ccccn3)C2)CC1 (stereo partly drawn) [Example 21, N-methyl-N-[trans-4-({[3-(pyridin-2-ylmethyl)-piperidin-1-yl]sulfonyl}-methyl)cyclohexyl]-7H-pyrrolo[2,3-d]pyrimidin-4-amine]	592	11.3	33
CN(c1ncnc2[nH]ccc12)[C@H]1CC[C@H](CS(=O)(=O)N2CCC(C)(O)CC2)CC1 [Example 23, 4-methyl-1-[({trans-4-[methyl(7H-pyrrolo[2,3-d]pyrimidin-4-yl)amino]-cyclohexyl}methyl)sulfonyl]-piperidin-4-ol]	243	7.74	42.1
CN(c1ncnc2[nH]ccc12)[C@H]1CC[C@H](CS(=O)(=O)N2CCC(O)(c3ccccc3)CC2)CC1 [Example 24, 1-[({trans-4-[methyl(7H-pyrrolo[2,3-d]pyrimidin-4-yl)amino]cyclohexyl}methyl)-sulfonyl]-4-phenyl-piperidin-4-ol]	37.4	5.03	7.42
CN(c1ncnc2[nH]ccc12)[C@H]1CC[C@H](CS(=O)(=O)N2CC[C@H](NC(=O)OC(C)(C)C)C2)CC1 [Example 26, tert-butyl {(3S)-1-[({trans-4-[methyl(7H-pyrrolo[2,3-d]pyrimidin-4-yl)amino]-cyclohexyl}methyl)sulfonyl]-pyrrolidin-3-yl}carbamate]	230	1.44	48.4
CN(c1ncnc2[nH]ccc12)[C@H]1CC[C@H](CS(=O)(=O)N2C[C@@H](O)[C@H](c3ccccc3)C2)CC1 [Example 29, (3S,4R)-1-[({trans-4-[methyl(7H-pyrrolo[2,3-d]pyrimidin-4-yl)amino]-cyclohexyl}methyl)sulfonyl]-4-phenylpyrrolidin-3-ol]	151	5.22	15
CN(c1ncnc2[nH]ccc12)[C@H]1CC[C@H](CS(=O)(=O)N2CC[C@@H](CO)C2)CC1 [Example 30, {(3R)-1-[({trans-4-[methyl(7H-pyrrolo[2,3-d]pyrimidin-4-yl)amino]-cyclohexyl}methyl)sulfonyl]-pyrrolidin-3-yl}-methanol]	112	3.06	8.36
CN(c1ncnc2[nH]ccc12)[C@H]1CC[C@H](CS(=O)(=O)N2CC[C@H](CO)C2)CC1 [Example 31, {(3S)-1-[({trans-4-[methyl(7H-pyrrolo[2,3-d]pyrimidin-4-yl)amino]-cyclohexyl}methyl)sulfonyl]-pyrrolidin-3-yl}-methanol]	200	2.88	14.4

The remaining compounds from weak to strong by IC50 (JAK3), led by results:

IC50 (JAK3) [nM]	IC50 (JAK1) [nM]	IC50 (JAK2) [nM]	SMILES
10000	5.91	32	CN(c1ncnc2[nH]ccc12)[C@H]1CC[C@H](CS(=O)(=O)N2CCCC(COc3ccc(F)cc3)C2)CC1 (stereo partly drawn) [Example 15, N-{trans-4-[({3-[(4-fluoro-phenoxy)methyl]piperidin-1-yl}sulfonyl)methyl]-cyclohexyl}-N-methyl-7H-pyrrolo[2,3-d]pyrimidin-4-amine]
745	6.06	54.7	CCCS(=O)(=O)CC1CCCN(S(=O)(=O)C[C@H]2CC[C@H](N(C)c3ncnc4[nH]ccc34)CC2)C1 (stereo partly drawn) [Example 17, N-methyl-N-{trans-4-[({3-[(propylsulfonyl)methyl]-piperidin-1-yl}sulfonyl)-methyl]-cyclohexyl}-7H-pyrrolo[2,3-d]pyrimidin-4-amine]
492	14.8	46.8	CN(c1ncnc2[nH]ccc12)[C@H]1CC[C@H](CS(=O)(=O)N2CCCC(O)(COc3cccc(F)c3)C2)CC1 (stereo partly drawn) [Example 19, 3-[(3-fluorophenoxy)-methyl]-1-[({trans-4-[methyl(7H-pyrrolo[2,3-d]pyrimidin-4-yl)amino]-cyclohexyl}methyl)sulfonyl]-piperidin-3-ol]
355	3.76	27.3	CN(c1ncnc2[nH]ccc12)[C@H]1CC[C@H](CS(=O)(=O)N2CC[C@H](CC#N)C2)CC1 [Example 32, {(3R)-1-[({trans-4-[methyl(7H-pyrrolo[2,3-d]pyrimidin-4-yl)amino]-cyclohexyl}methyl)sulfonyl]-pyrrolidin-3-yl}-acetonitrile]
342	9.18	34.2	CN(c1ncnc2[nH]ccc12)[C@H]1CC[C@H](CS(=O)(=O)N2CCC(O)CC2)CC1 [Example 9, 1-[({trans-4-[methyl(7H-pyrrolo[2,3-d]pyrimidin-4-yl)amino]cyclohexyl}methyl)-sulfonyl]piperidin-4-ol]
210	9.75	19.5	Cc1nnc(C2CCCN(S(=O)(=O)C[C@H]3CC[C@H](N(C)c4ncnc5[nH]ccc45)CC3)C2)o1 (stereo partly drawn) [Example 18, N-methyl-N-[trans-4-({[3-(5-methyl-1,3,4-oxadiazol-2-yl)piperidin-1-yl]sulfonyl}methyl)-cyclohexyl]-7H-pyrrolo-[2,3-d]pyrimidin-4-amine]
173	2.96	18.3	CN(c1ncnc2[nH]ccc12)[C@H]1CC[C@H](CS(=O)(=O)N2CCCC(OCC(N)=O)C2)CC1 (stereo partly drawn) [Example 7, 2-({1-[({trans-4-[methyl-(7H-pyrrolo[2,3-d]-pyrimidin-4-yl)amino]-cyclohexyl}methyl)sulfonyl]-piperidin-3-yl}oxy)-acetamide]
138	11.5	32.5	CN(c1ncnc2[nH]ccc12)[C@H]1CC[C@H](CS(=O)(=O)N2CC[C@H](O)[C@H](O)C2)CC1 [Example 22, (3R,4S)-1-[({trans-4-[methyl(7H-pyrrolo[2,3-d]pyrimidin-4-yl)amino]-cyclohexyl}methyl)sulfonyl]-piperidine-3,4-diol]
